Test results published in patent publication US20260216164A1, “INDOLE COMPOUND DECOMPOSING IKZF2, AND USE THEREOF” (KOREA RESEARCH INSTITUTE OF CHEMICAL TECHNOLOGY, priority 2023, published 2026).
Where two headings read alike, the source gives them in different places.

Tests used:
Type in all cases: cell-based
IKZF2 (Helios) = IKZF2 (Helios) (Homo sapiens, UniProt Q96SW2+Q9UKS7); assay: Screening of DC50 (nM) and Dmax (%) using WB-IKZF2 cell line (Western blot); set-up: endogenous in cells; conditions: 6 hours; for DC50: read-out: WB-IKZF2 DC 50
Protocol: Experimental Example 2. Screening of DC50 (nM) and Dmax (%) Using WB-IKZF2 Cell Line
Candidate degraders were serially diluted and treated in cells cultured in complete medium, followed by incubation for 6 hours at 37° C. in a CO2 incubator. After 6 hours, the cells were harvested and lysed in RIPA buffer (150 mM NaCl, 1% Triton X-100, 1% sodium deoxycholate, 0.1% SDS, 50 mM Tris-HCl pH 7.5, and 2 mM EDTA) containing a protease inhibitor cocktail (Roche). The mixture was vortexed every 10 minutes and incubated on ice for 30 minutes, followed by centrifugation at 13,000 rpm for 10 minutes at 4° C. to isolate proteins. The isolated proteins were quantified using the Bradford assay (Bio-Rad, 5000006). Proteins were separated on 8% SDS-polyacrylamide gel, transferred onto nitrocellulose membranes (Amersham, 10600002), and incubated with primary antibodies at 4° C. for 18 hours. The following primary antibodies were used: anti-Helios rabbit monoclonal antibody (Cell Signaling, 42427, 1:3000) and anti-β-actin mouse monoclonal antibody (Santa Cruz, sc-47778, 1:5000). β-actin was used as a loading control. The next day, the membranes were washed with 1×TBST for 30 minutes and incubated with HRP-conjugated secondary antibodies corresponding to the primary antibodies at room temperature for 1 hour. The following secondary antibodies were used: anti-mouse IgG HRP-linked antibody (Sigma, A9044, 1:5000) and anti-rabbit IgG HRP-linked antibody (Cell Signaling, 7074, 1:5000). After washing with 1×TBST for 30 minutes, protein expression was visualized using the Pierce ECL Western blotting substrate (Thermo Fisher, 32106), and images were captured using a chemiluminescence image analysis system (GE Healthcare, AI680). The obtained images were quantified using the ImageJ software.

Helios protein = target: T1, Helios protein (Homo sapiens, UniProt Q96SW2+Q9UKS7); assay: Measurement of Helios protein degradation using Western blot analysis in Jurkat cells (FIG. 1); conditions: 6 hours
T1 construct: endogenous in cells; host or cells: Jurkat cells
Protocol: To confirm the degradation of Helios protein by the degrader, Western blot analysis was performed. Jurkat cells (5×10^6) in complete medium were treated with serial dilutions of the compound at 37° C. in a CO2 incubator for 6 hours.
After harvesting the cells, they were lysed in RIPA buffer (LPS solution, CRB002) containing a protease inhibitor cocktail (Roche). The lysates were incubated on ice for 30 minutes with vortexing every 10 minutes, followed by centrifugation at 13,000 rpm for 10 minutes at 4° C. to isolate the cell lysates. The lysates were quantified using the Bradford assay (Bio-Rad, 5000006).
30 μg of the lysates were separated by 8% SDS-polyacrylamide gel electrophoresis (SDS-PAGE), and the proteins were transferred to a nitrocellulose (NC) membrane (Amersham, 10600002), followed by incubation with primary antibodies at 4° C. for 18 hours. […]
After washing with 1×TBST for 30 minutes, protein expression was visualized using Pierce ECL Western blotting substrate (Thermo Fisher, 32106), and the images were acquired using a chemiluminescence imaging system (GE Healthcare, AI680). The resulting images were quantified using ImageJ software. The results of Helios protein degradation measured with compound 39 of the present disclosure and comparative compound DKY709 are shown in FIG. 1.

Helios (IKZF2) = Helios (IKZF2) (Homo sapiens, UniProt Q96SW2+Q9UKS7); assay: Screening of Helios protein degraders using Nano-Glo HiBiT cell line (HiBiT-IKZF2); conditions: 6 hours, HiBiT-Helios knock-in Jurkat cells; for remaining activity at 1 µM: compound 1 μM, read-out: HiBiT-IKZF2 Residual amount of Helios (%) 1 μM; for remaining activity at 10 µM: compound 10 μM, read-out: HiBiT-IKZF2 Residual amount of Helios (%) 10 μM
[1] = target: IKZF2 over IKZF1, IKZF3, and IKZF4 (Homo sapiens, UniProt Q96SW2+Q9UKS7); assay: Selective degradation of IKZF2 over IKZF1, IKZF3 and IKZF4

Sequence of IKZF2 (Helios) (Q9UKS7 whole entry): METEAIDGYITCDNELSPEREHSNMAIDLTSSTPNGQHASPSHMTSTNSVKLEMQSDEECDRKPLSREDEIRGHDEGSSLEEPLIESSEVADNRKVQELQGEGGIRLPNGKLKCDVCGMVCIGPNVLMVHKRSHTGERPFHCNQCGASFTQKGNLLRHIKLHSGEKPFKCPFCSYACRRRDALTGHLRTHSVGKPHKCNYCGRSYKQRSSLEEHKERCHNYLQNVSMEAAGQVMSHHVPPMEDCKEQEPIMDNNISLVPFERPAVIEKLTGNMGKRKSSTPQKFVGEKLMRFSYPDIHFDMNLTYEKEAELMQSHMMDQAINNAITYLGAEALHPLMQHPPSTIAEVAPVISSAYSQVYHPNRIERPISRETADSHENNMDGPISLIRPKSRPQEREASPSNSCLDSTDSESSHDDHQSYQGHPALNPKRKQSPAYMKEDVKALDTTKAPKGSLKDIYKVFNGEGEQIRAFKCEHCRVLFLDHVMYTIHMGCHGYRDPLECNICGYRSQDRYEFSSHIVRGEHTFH
Sequence of IKZF2 (Helios) (Q96SW2 whole entry): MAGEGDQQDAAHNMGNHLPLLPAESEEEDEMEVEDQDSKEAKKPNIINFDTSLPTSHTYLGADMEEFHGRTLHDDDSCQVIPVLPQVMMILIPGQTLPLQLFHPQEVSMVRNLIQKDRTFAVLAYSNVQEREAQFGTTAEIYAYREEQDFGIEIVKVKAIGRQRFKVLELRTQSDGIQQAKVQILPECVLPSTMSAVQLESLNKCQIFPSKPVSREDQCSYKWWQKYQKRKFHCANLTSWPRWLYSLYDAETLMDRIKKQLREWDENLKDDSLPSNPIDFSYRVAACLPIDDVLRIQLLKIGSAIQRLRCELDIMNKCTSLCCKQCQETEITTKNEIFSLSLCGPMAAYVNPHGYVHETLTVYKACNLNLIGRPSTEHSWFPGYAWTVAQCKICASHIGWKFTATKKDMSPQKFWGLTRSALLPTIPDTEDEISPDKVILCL
Sequence of IKZF2 (Helios) (Q16531 whole entry partner): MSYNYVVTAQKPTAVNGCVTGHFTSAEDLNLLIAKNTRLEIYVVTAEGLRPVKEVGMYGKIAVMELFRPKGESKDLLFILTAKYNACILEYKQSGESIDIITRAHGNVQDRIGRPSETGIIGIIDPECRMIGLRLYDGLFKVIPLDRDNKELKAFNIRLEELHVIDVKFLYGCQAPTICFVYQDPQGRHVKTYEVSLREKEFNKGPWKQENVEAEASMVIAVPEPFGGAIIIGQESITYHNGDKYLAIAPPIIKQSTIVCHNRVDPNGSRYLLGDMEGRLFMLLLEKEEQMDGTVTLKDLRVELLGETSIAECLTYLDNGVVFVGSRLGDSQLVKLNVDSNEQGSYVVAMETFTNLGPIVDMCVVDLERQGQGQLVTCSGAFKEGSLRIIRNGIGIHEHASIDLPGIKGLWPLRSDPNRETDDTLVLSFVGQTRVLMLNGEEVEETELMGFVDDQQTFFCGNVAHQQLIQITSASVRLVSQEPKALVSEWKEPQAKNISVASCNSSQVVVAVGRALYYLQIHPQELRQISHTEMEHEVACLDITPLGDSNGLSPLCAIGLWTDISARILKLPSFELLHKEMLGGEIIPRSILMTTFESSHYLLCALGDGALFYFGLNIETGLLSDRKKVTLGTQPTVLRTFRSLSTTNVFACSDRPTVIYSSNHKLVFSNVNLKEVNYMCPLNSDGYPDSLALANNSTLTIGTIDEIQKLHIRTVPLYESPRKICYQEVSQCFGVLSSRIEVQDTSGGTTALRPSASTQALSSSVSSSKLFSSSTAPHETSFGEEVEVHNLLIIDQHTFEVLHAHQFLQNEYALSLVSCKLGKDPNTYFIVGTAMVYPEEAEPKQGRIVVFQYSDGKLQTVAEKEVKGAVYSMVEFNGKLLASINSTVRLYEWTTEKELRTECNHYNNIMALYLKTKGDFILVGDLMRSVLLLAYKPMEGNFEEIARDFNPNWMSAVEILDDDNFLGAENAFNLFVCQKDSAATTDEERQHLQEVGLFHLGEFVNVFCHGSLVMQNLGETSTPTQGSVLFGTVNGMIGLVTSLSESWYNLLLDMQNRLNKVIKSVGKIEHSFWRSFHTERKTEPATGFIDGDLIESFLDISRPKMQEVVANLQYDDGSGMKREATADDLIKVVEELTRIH
Sequence of Helios (IKZF2) (Q9UKS7 whole entry): as the sequence (Q9UKS7 whole entry) above
Sequence of Helios (IKZF2) (Q96SW2 whole entry): as the sequence (Q96SW2 whole entry) above
Sequence of Helios (IKZF2) (Q16531 whole entry partner): as the sequence (Q16531 whole entry partner) above
T1 sequence (Q9UKS7 whole entry): as the sequence (Q9UKS7 whole entry) above
T1 sequence (Q96SW2 whole entry): as the sequence (Q96SW2 whole entry) above
T1 sequence (Q16531 whole entry partner): as the sequence (Q16531 whole entry partner) above

SMILES | Dmax (IKZF2 (Helios)) [%] | DC50 (IKZF2 (Helios); numeric value) [nM] | Helios protein degradation activity compared to comparative compound 1 (DKY709) (Helios protein) | remaining activity at 1 µM (Helios (IKZF2)) [%] | remaining activity at 10 µM (Helios (IKZF2)) [%] | DC50 (IKZF2 (Helios); class symbols) [nM] | selective degradation activity for IKZF2 over IKZF1, IKZF3, and IKZF4 [1]
Cc1c(C(=O)N2CCC(c3ccc4c(c3)CN(C3CCC(=O)NC3=O)C4=O)CC2)[nH]c2cc(Cl)ccc12 (stereo not shown) [Compound 39, 3-(5-(1-(6-chloro-3-methyl-1H-indole-2-carbonyl)piperidin-4-yl)-1-oxoinsoindolin-2-yl)piperidine-2,6-dione] | 100 | 0.19 | more than 1,000 fold | 6.6 | 5.5 | – | –
O=C1CCC(N2Cc3cc(C4CCN(C(=O)c5[nH]c6cc(Cl)ccc6c5CN5CCOCC5)CC4)ccc3C2=O)C(=O)N1 (stereo not shown) [Compound 82, 3-(5-(1-(6-chloro-3-(morpholinomethyl)-1H-indole-2-carbonyl)piperidin-4-yl)-1-oxoinsoindolin-2-yl)piperidine-2,6-dione] | – | – | – | – | 7.4 | 10 to 100 | selective degradation activity for IKZF2 over IKZF1, IKZF3, and IKZF4
Cc1c(C(=O)N2CCC(c3ccc4c(c3)C(=O)N(C3CCC(=O)NC3=O)C4=O)CC2)[nH]c2cc([N+](=O)[O-])ccc12 (stereo not shown) [Compound 95, 2-(2,6-dioxopiperidin-3-yl)-5-(1-(3-methyl-6-nitro-1H-indole-2-carbonyl)piperidin-4-yl)isoindoline-1,3-dione] | – | – | – | – | 10.9 | 10 to 100 | –
COc1cc2c(C)c(C(=O)N3CCC(c4ccc5c(c4)CN(C4CCC(=O)NC4=O)C5=O)CC3)[nH]c2cc1[N+](=O)[O-] (stereo not shown) [Compound 97, 3-(5-(1-(5-methoxy-3-methyl-6-nitro-1H-indole-2-carbonyl)piperidin-4-yl)-1-oxoinsoindolin-2-yl)piperidine-2,6-dione] | – | – | – | 14.6 | 21.4 | 10 to 100 | –
Cc1c(C(=O)N2CCC(c3ccc4c(c3)CN(C3CCC(=O)NC3=O)C4=O)CC2)[nH]c2c(F)c(Cl)ccc12 (stereo not shown) [Compound 99, 3-(5-(1-(6-chloro-7-fluoro-3-methyl-1H-indole-2-carbonyl)piperidin-4-yl)-1-oxoinsoindolin-2-yl)piperidine-2,6-dione] | – | – | – | 10.9 | 14.6 | 10 to 100 | –
Cc1c(C(=O)N2CCC(c3ccc4c(c3)CN(C3CCC(=O)NC3=O)C4=O)CC2)[nH]c2cc(Cl)c(O)cc12 (stereo not shown) [Compound 101, 3-(5-(1-(6-chloro-5-hydroxy-3-methyl-1H-indole-2-carbonyl)piperidin-4-yl)-1-oxoinsoindolin-2-yl)piperidine-2,6-dione] | 100 | – | – | 15.7 | 20.7 | 10 to 100 | –
Cc1c(C(=O)N2CCC(c3ccc4c(c3)CN(C3CCC(=O)NC3=O)C4=O)CC2)[nH]c2cc(Cl)c(F)cc12 (stereo not shown) [Compound 102, 3-(5-(1-(6-chloro-5-fluoro-3-methyl-1H-indole-2-carbonyl)piperidin-4-yl)-1-oxoinsoindolin-2-yl)piperidine-2,6-dione] | 100 | – | – | 21.8 | 26.2 | < 10 | –
COc1cc2c(C)c(C(=O)N3CCC(c4ccc5c(c4F)CN(C4CCC(=O)NC4=O)C5=O)CC3)[nH]c2cc1Cl (stereo not shown) [Compound 108, 3-(5-(1-(6-chloro-5-methoxy-3-methyl-1H-indole-2-carbonyl)piperidin-4-yl)-4-fluoro-1-oxoinsoindolin-2-yl)piperidine-2,6-dione] | 100 | – | – | 8.3 | 7.5 | < 10 | –
Cc1c(C(=O)N2CCC(c3cc4c(cc3F)C(=O)N(C3CCC(=O)NC3=O)C4)CC2)[nH]c2cc(Cl)c(F)cc12 (stereo not shown) [Compound 112, 3-(5-(1-(6-chloro-5-fluoro-3-methyl-1H-indole-2-carbonyl)piperidin-4-yl)-6-fluoro-1-oxoinsoindolin-2-yl)piperidine-2,6-dione] | 98 | – | – | 23 | – | 10 to 100 | –
Cc1c(C(=O)N2CCC(c3ccc4c(c3F)CN(C3CCC(=O)NC3=O)C4=O)CC2)[nH]c2cc(Cl)c(F)cc12 (stereo not shown) [Compound 113, 3-(5-(1-(6-chloro-5-fluoro-3-methyl-1H-indole-2-carbonyl)piperidin-4-yl)-4-fluoro-1-oxoinsoindolin-2-yl)piperidine-2,6-dione] | 96 | – | – | 14.1 | – | < 10 | –
Cc1c(C(=O)N2CCC(c3ccc4c(c3F)CN(C3CCC(=O)NC3=O)C4=O)CC2)[nH]c2cc(Cl)c(O)cc12 (stereo not shown) [Compound 115, 3-(5-(1-(6-chloro-5-hydroxy-3-methyl-1H-indole-2-carbonyl)piperidin-4-yl)-4-fluoro-1-oxoinsoindolin-2-yl)piperidine-2,6-dione] | 100 | – | – | 34.6 | – | < 10 | –
